Measurements: US9428464B2, “Kynurenine-3-monooxygenase inhibitors, pharmaceutical compositions, and methods of use thereof” (CHDI Foundation, Inc., priority 2011, dated 2016)
“And” between values parts separate entries of the source, which are not always exact repeats. Equal entries are not always repeated.

test system: KMO; test: KMO activity assay: L-Kynurenine hydroxylation to 3-Hydroxy-Kynurenine, quantified by LC/MS; format: biochemical; conditions: compound at 10 uM; footnote: some portion of activity of amides may be due to contribution of acid precursor
Description: A generalized procedure for monitoring L-Kynurenine (KYN) hydroxylation to form product 3-Hydroxy-Kynurenine (3OH-KYN) by LC/MS is described below. Product is quantified by multiple reaction monitoring using MS.
A method of monitoring L-Kynurenine (KYN) hydroxylation to form product 3-Hydroxy-Kynurenine (3OH-KYN) by LC/MS is described below. Product is quantified by multiple reaction monitoring.
• Compound: Stock concentrations: 10 mM in 100% DMSO • Enzyme: KMO enzyme prepared at Evotec via mitochondria isolation from CHO-GST HIS KMO cells • Substrate: L-Kynurenine (Sigma: Cat #K3750) • [stock concentration: 10 mM in 100 mM potassium phosphate buffer, pH 7.4]
A method of monitoring L-Kynurenine (KYN) hydroxylation to form 3-Hydroxy-Kynurenine (3OH-KYN) by LC/MS is described. Product is quantified by multiple reaction monitoring (MRM method).

Compound	% Inhibition at 10 uM [%]
Cl.O=C(Nc1cccc(C2CNCCN2)c1)c1cc(-c2ccc(Cl)c(Cl)c2)ncn1 (centres unmarked) [6-(3,4-Dichloro-phenyl)-pyrimidine-4-carboxylic acid (3-piperazin-2-yl-phenyl)-amide hydrochloride salt]	96.58
Cl.O=C(Nc1cccc(C2CCNCC2)c1)c1cc(-c2ccc(Cl)c(Cl)c2)ncn1 [6-(3,4-Dichloro-phenyl)-pyrimidine-4-carboxylic acid (3-piperidin-4-yl-phenyl)-amide hydrochloride salt]	69.06
O=C(Nc1cc(C(F)(F)F)no1)c1cc(-c2ccc(Cl)c(Cl)c2)ncn1 [6-(3,4-Dichloro-phenyl)-pyrimidine-4-carboxylic acid (3-trifluoromethyl-isoxazol-5-yl)-amide]	101.875
CN(C)C1(CNC(=O)c2cc(-c3ccc(Cl)c(Cl)c3)ncn2)CCOCC1.Cl [6-(3,4-Dichloro-phenyl)-pyrimidine-4-carboxylic acid (4-dimethylamino-tetrahydro-pyran-4-ylmethyl)-amide hydrochloride salt]	96.81
O=C(NCC1(O)CCOCC1)c1cc(-c2ccc(Cl)c(Cl)c2)ncn1 [6-(3,4-Dichloro-phenyl)-pyrimidine-4-carboxylic acid (4-hydroxy-tetrahydro-pyran-4-ylmethyl)-amide]	74.49
Cl.O=C(Nc1ccc(N2CCOCC2)cc1)c1cc(-c2ccc(Cl)c(Cl)c2)ncn1 [6-(3,4-Dichloro-phenyl)-pyrimidine-4-carboxylic acid (4-morpholin-4-yl-phenyl)-amide hydrochloride salt]	76.95
O=C(Nc1ccc(N2CCOCC2)cc1)c1cc(-c2ccc(Cl)c(Cl)c2)ncn1 [6-(3,4-Dichloro-phenyl)-pyrimidine-4-carboxylic acid (4-morpholin-4-yl-phenyl)-amide]	101.19
Cl.O=C(Nc1ccc(N2CCNCC2)cc1)c1cc(-c2ccc(Cl)c(Cl)c2)ncn1 [6-(3,4-Dichloro-phenyl)-pyrimidine-4-carboxylic acid (4-piperazin-1-yl-phenyl)-amide hydrochloride salt]	93.13
O=C(Nc1ccc(N2CCNCC2)cc1)c1cc(-c2ccc(Cl)c(Cl)c2)ncn1 [6-(3,4-Dichloro-phenyl)-pyrimidine-4-carboxylic acid (4-piperazin-1-yl-phenyl)-amide]	43.46
Cc1nnc(CNC(=O)c2cc(-c3ccc(Cl)c(Cl)c3)ncn2)o1 [6-(3,4-Dichloro-phenyl)-pyrimidine-4-carboxylic acid (5-methyl-[1,3,4]oxadiazol-2-ylmethyl)-amide]	100.815
O=C1CCC(NC(=O)c2cc(-c3ccc(Cl)c(Cl)c3)ncn2)N1 (centres unmarked) [6-(3,4-Dichloro-phenyl)-pyrimidine-4-carboxylic acid (5-oxo-pyrrolidin-2-yl)-amide]	93.08
O=C1CC(NC(=O)c2cc(-c3ccc(Cl)c(Cl)c3)ncn2)CN1 (centres unmarked) [6-(3,4-Dichloro-phenyl)-pyrimidine-4-carboxylic acid (5-oxo-pyrrolidin-3-yl)-amide]	83.73
CC(C)(C)c1nnc(NC(=O)c2cc(-c3ccc(Cl)c(Cl)c3)ncn2)o1 [6-(3,4-Dichloro-phenyl)-pyrimidine-4-carboxylic acid (5-tert-butyl-[1,3,4]oxadiazol-2-yl)-amide]	101.4
O=C(Nc1nnc(C(F)(F)F)o1)c1cc(-c2ccc(Cl)c(Cl)c2)ncn1 [6-(3,4-Dichloro-phenyl)-pyrimidine-4-carboxylic acid (5-trifluoromethyl-[1,3,4]oxadiazol-2-yl)-amide]	102.78
Cc1ccc(NC(=O)c2cc(-c3ccc(Cl)c(Cl)c3)ncn2)nn1 [6-(3,4-Dichloro-phenyl)-pyrimidine-4-carboxylic acid (6-methyl-pyridazin-3-yl)-amide]	77.125
Cl.O=C(Nc1ccc(N2CCNCC2)nc1)c1cc(-c2ccc(Cl)c(Cl)c2)ncn1 [6-(3,4-Dichloro-phenyl)-pyrimidine-4-carboxylic acid (6-piperazin-1-yl-pyridin-3-yl)-amide hydrochloride salt]	87.82
O=C(N[C@H]1c2ccccc2C[C@H]1O)c1cc(-c2ccc(Cl)c(Cl)c2)ncn1 [6-(3,4-Dichloro-phenyl)-pyrimidine-4-carboxylic acid ((1S,2R)-2-hydroxy-indan-1-yl)-amide]	97.78
C[C@@H](NC(=O)c1cc(-c2ccc(Cl)c(Cl)c2)ncn1)c1ccccc1 [6-(3,4-Dichloro-phenyl)-pyrimidine-4-carboxylic acid ((R)-1-phenyl-ethyl)-amide]	101.25
C[C@@H](NC(=O)c1cc(-c2ccc(Cl)c(Cl)c2)ncn1)c1cccnc1 [6-(3,4-Dichloro-phenyl)-pyrimidine-4-carboxylic acid ((R)-1-pyridin-3-yl-ethyl)-amide]	90.86

Compound	% Inhibition at 10 uM [%]
C[C@H](CO)NC(=O)c1cc(-c2ccc(Cl)c(Cl)c2)ncn1 [6-(3,4-Dichloro-phenyl)-pyrimidine-4-carboxylic acid ((R)-2-hydroxy-1-methyl-ethyl)-amide]	97.775
CC(NC(=O)c1cc(-c2ccc(Cl)c(Cl)c2)ncn1)[C@@H](C)O (stereo partly drawn) [6-(3,4-Dichloro-phenyl)-pyrimidine-4-carboxylic acid ((R)-2-hydroxy-1-methyl-propyl)-amide]	66.43
C[C@@H](O)CNC(=O)c1cc(-c2ccc(Cl)c(Cl)c2)ncn1 [6-(3,4-Dichloro-phenyl)-pyrimidine-4-carboxylic acid ((R)-2-hydroxy-propyl)-amide]	100.71
C[C@H](NC(=O)c1cc(-c2ccc(Cl)c(Cl)c2)ncn1)C(N)=O [6-(3,4-Dichloro-phenyl)-pyrimidine-4-carboxylic acid ((S)-1-carbamoyl-ethyl)-amide]	47.73
CC[C@H](NC(=O)c1cc(-c2ccc(Cl)c(Cl)c2)ncn1)C(N)=O [6-(3,4-Dichloro-phenyl)-pyrimidine-4-carboxylic acid ((S)-1-carbamoyl-propyl)-amide]	87.6
C[C@H](NC(=O)c1cc(-c2ccc(Cl)c(Cl)c2)ncn1)c1ccccc1 [6-(3,4-Dichloro-phenyl)-pyrimidine-4-carboxylic acid ((S)-1-phenyl-ethyl)-amide]	102.29
C[C@H](NC(=O)c1cc(-c2ccc(Cl)c(Cl)c2)ncn1)c1cccnc1 [6-(3,4-Dichloro-phenyl)-pyrimidine-4-carboxylic acid ((S)-1-pyridin-3-yl-ethyl)-amide]	85.1
C[C@H](NC(=O)c1cc(-c2ccc(Cl)c(Cl)c2)ncn1)c1ccncc1 [6-(3,4-Dichloro-phenyl)-pyrimidine-4-carboxylic acid ((S)-1-pyridin-4-yl-ethyl)-amide]	91.79
C[C@@H](CO)NC(=O)c1cc(-c2ccc(Cl)c(Cl)c2)ncn1 [6-(3,4-Dichloro-phenyl)-pyrimidine-4-carboxylic acid ((S)-2-hydroxy-1-methyl-ethyl)-amide]	99.59
C[C@H](O)CNC(=O)c1cc(-c2ccc(Cl)c(Cl)c2)ncn1 [6-(3,4-Dichloro-phenyl)-pyrimidine-4-carboxylic acid ((S)-2-hydroxy-propyl)-amide]	86.83
Cl.O=C(N[C@@H]1CCNC1)c1cc(-c2ccc(Cl)c(Cl)c2)ncn1 [6-(3,4-Dichloro-phenyl)-pyrimidine-4-carboxylic acid (R)-pyrrolidin-3-ylamide hydrochloride salt]	95.94
Cl.O=C(N[C@H]1CCNC1)c1cc(-c2ccc(Cl)c(Cl)c2)ncn1 [6-(3,4-Dichloro-phenyl)-pyrimidine-4-carboxylic acid (S)-pyrrolidin-3-ylamide hydrochloride salt]	89.355
O=C(N[C@@H]1CCOC1)c1cc(-c2ccc(Cl)c(Cl)c2)ncn1 [6-(3,4-Dichloro-phenyl)-pyrimidine-4-carboxylic acid (tetrahydro-furan-3R-yl)-amide]	41.5
O=C(N[C@H]1CCOC1)c1cc(-c2ccc(Cl)c(Cl)c2)ncn1 [6-(3,4-Dichloro-phenyl)-pyrimidine-4-carboxylic acid (tetrahydro-furan-3S-yl)-amide]	53.41
O=C(NC1CCOCC1)c1cc(-c2ccc(Cl)c(Cl)c2)ncn1 [6-(3,4-Dichloro-phenyl)-pyrimidine-4-carboxylic acid (tetrahydro-pyran-4-yl)-amide]	55.35
O=C(NCC1CCOCC1)c1cc(-c2ccc(Cl)c(Cl)c2)ncn1 [6-(3,4-Dichloro-phenyl)-pyrimidine-4-carboxylic acid (tetrahydro-pyran-4-ylmethyl)-amide]	101.39
O=C(Nc1nnco1)c1cc(-c2ccc(Cl)c(Cl)c2)ncn1 [6-(3,4-Dichloro-phenyl)-pyrimidine-4-carboxylic acid [1,3,4]oxadiazol-2-ylamide]	101.93
CC(NC(=O)c1cc(-c2ccc(Cl)c(Cl)c2)ncn1)c1ccc2c(c1)NC(=O)CO2 (centres unmarked) [6-(3,4-Dichloro-phenyl)-pyrimidine-4-carboxylic acid [1-(3-oxo-3,4-dihydro-2H-benzo[1,4]oxazin-6-yl)-ethyl]-amide]	99.66

same assay, conditions: compound at 10 uM; footnote: some portion of activity of amides may be due to contribution of acid precursor; 10 µM

Compound	% Inhibition at 10 uM
CC(=O)N1CC[C@H](NC(=O)c2cc(-c3ccc(Cl)c(Cl)c3)ncn2)C1 [6-(3,4-Dichloro-phenyl)-pyrimidine-4-carboxylic acid ((S)-1-acetyl-pyrrolidin-3-yl)-amide]	84.87% and 98.54%
